PubChem BioAssay (NCI)
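Following 48 hours of exposure in 96-well plates, responses at five concentrations were used to interpolate endpoints linearly. TGI: concentration producing complete growth inhibition.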

What was measured:
Assay in all cases: NCI-60 cell line screen, 48 h
[1] = test system: HL-60(TB) leukemia
[2] = test system: TK-10 renal
[3] = test system: ACHN renal
[4] = test system: HCT-15 colon
[5] = test system: MDA-MB-435
[6] = test system: UO-31 renal
[7] = test system: NCI-H23 lung
[8] = test system: HCT-116 colon
[9] = test system: U251 CNS
[10] = test system: SR leukemia

Measured: TGI

CC(C)(C)/C(O)=C\c1nc2cc(F)c(F)cc2[nH]c1=O
> 100 µM: [1] | [2] | [3] | [4] | [5] | [6] | [7] | [8] | [9] | [10]

NC(=O)NN=C1Cc2ccccc2C1
> 100 µM: [1] | [2] | [3] | [4] | [5] | [6] | [7] | [8] | [9] | [10]

O=c1c2ccc(Cl)cc2oc2c(CNc3ccc(S(=O)(=O)Nc4ncccn4)cc3)cccc12
> 100 µM: [1] | [2] | [3] | [4] | [5] | [6] | [7] | [8] | [9] | [10]
